In patent EP1189615B1, “ENDOPARASITICIDAL SYNERGISTIC COMBINATION CONTAINING CYCLIC DEPSIPEPTIDES AND PIPERAZINES” (Bayer HealthCare AG, priority 1999, dated 2000):
Like-named read-outs stand apart in the source and are kept apart here.

What was measured:
Trichinella spiralis = conditions: in-vitro
Excerpt: (§1) Die Durchführung der biologischen Tests erfolgte entsprechend den bekannten Verfahren (Plant et. al. Pesticide Science, 1996, 48, S. 351 ff.).

Heterakis spumosa = conditions: Maus
Excerpt: as §1

Nematospiroides dibius = conditions: Maus
Excerpt: as §1

## C1CNCCN1 [Piperazin]
Trichinella spiralis; Konzentration 500 µg/ml
  Wirkung: 0
Trichinella spiralis; Konzentration 1000 µg/ml
  Wirkung: 0-1
Heterakis spumosa; Dosis 4 x 100 mg/kg
  Wirkung: 0 (Wurmreduktion <50 %)
Heterakis spumosa; Dosis 4 x 250 mg/kg
  Wirkung: 1 (Wurmreduktion 50-75 %)
Nematospiroides dibius; Dosis 2 x 2000 mg/kg
  Wirkung: 2 (Wurmreduktion 75-90 %)
Nematospiroides dibius; Dosis 4 x 1000 mg/kg
  Wirkung: 1 (Wurmreduktion 50-75 %)
